From ChEMBL document CHEMBL1128856, “Paclitaxel and docetaxel photoaffinity labels” (1995) come the findings set out here.

Holding throughout (type): functional
Experiment [1] can be described thus: Ability to induce the formation of microtubules using microtubule assembly assay in vitro relative to paclitaxel ED50 = 1.
The nature of experiment [2]: In vitro cytotoxicity against B16 melanoma cells relative to paclitaxel ED50 = 1.
Experiment [3] is described as follows: In vitro cytotoxicity against P388 cells relative to paclitaxel ED50 = 1.

`CC(=O)O[C@H]1C(=O)[C@@]2(C)[C@H]([C@H](OC(=O)c3ccccc3)[C@]3(O)C[C@H](OC(=O)[C@H](O)[C@@H](NC(=O)c4cc(N=[N+]=[N-])cc([N+](=O)[O-])c4)c4ccccc4)C(C)=C1C3(C)C)[C@]1(OC(C)=O)CO[C@@H]1C[C@@H]2O`: the Ratio in experiment [1] amounted to 3; in experiment [2], 17.4.
Consider `CC(=O)O[C@H]1C(=O)[C@@]2(C)[C@H]([C@H](OC(=O)c3cccc(N=[N+]=[N-])c3)[C@]3(O)C[C@H](OC(=O)[C@H](O)[C@@H](NC(=O)OC(C)(C)C)c4ccccc4)C(C)=C1C3(C)C)[C@]1(OC(C)=O)CO[C@@H]1C[C@@H]2O`, for which the Ratio stood at 1.2 in experiment [1] and 0.37 in experiment [2].
`CC(=O)O[C@H]1C(=O)[C@@]2(C)[C@H]([C@H](OC(=O)c3ccccc3)[C@]3(O)C[C@H](OC(=O)[C@H](O)[C@@H](NC(=O)c4ccc(N=[N+]=[N-])cc4)c4ccccc4)C(C)=C1C3(C)C)[C@]1(OC(C)=O)CO[C@@H]1C[C@@H]2O`: the Ratio in experiment [1] was 2; in experiment [2] it was 4.6.
As for `CC(=O)O[C@H]1C(=O)[C@@]2(C)[C@H]([C@H](OC(=O)c3cccc(N=[N+]=[N-])c3)[C@]3(O)C[C@H](OC(=O)[C@H](O)[C@@H](NC(=O)c4ccccc4)c4ccccc4)C(C)=C1C3(C)C)[C@]1(OC(C)=O)CO[C@@H]1C[C@@H]2O`, the Ratio in experiment [1] was determined as 0.4; in experiment [3] it was 0.08; in experiment [2], 0.65.
Regarding `CC(=O)O[C@H]1C(=O)[C@@]2(C)[C@H]([C@H](OC(=O)c3ccccc3)[C@]3(O)C[C@H](OC(=O)[C@H](O)[C@@H](NC(=O)c4ccccc4)c4ccccc4)C(C)=C1C3(C)C)[C@]1(OC(C)=O)CO[C@@H]1C[C@@H]2O` [PACLITAXEL], the Ratio in experiment [1] and in experiment [2] was 1 each time.
As to `CC(=O)O[C@H]1C(=O)[C@@]2(C)[C@H]([C@H](OC(=O)c3ccccc3)[C@]3(O)C[C@H](OC(=O)[C@H](O)[C@@H](NC(=O)c4cccc(N=[N+]=[N-])c4)c4ccccc4)C(C)=C1C3(C)C)[C@]1(OC(C)=O)CO[C@@H]1C[C@@H]2O`, the Ratio in experiment [1] was 0.81; in experiment [2], 2.6.
Regarding `CC(=O)O[C@@]12CO[C@@H]1C[C@H](O)[C@@]1(C)C(=O)[C@H](O)C3=C(C)[C@@H](OC(=O)[C@H](O)[C@@H](NC(=O)OC(C)(C)C)c4ccccc4)C[C@@](O)([C@@H](OC(=O)c4ccccc4)[C@H]21)C3(C)C.O.O.O` [DOCETAXEL], the Ratio in experiment [1] worked out at 0.45; in experiment [2], 0.41.
